This passage reports IC50 results from patent publication US20240182481A1 (Tango Therapeutics, Inc., priority 2021, published 2024).

One assay addresses USP1-UAF1 (Homo sapiens, UniProt O94782). The assay is described as follows: Ubiquitin Rhodamine assay for USP1-UAF1 activity. In kind it is biochemical. How it is done:
Certain compounds of the disclosure were assessed for USP1-UAF1 activity in a Ubiquitin Rhodamine assay as described in Example 135.

In assay [1] the test system is MDA-MB-436 (BRCA1 mutant) cell line. The assay is described as follows: Viability assay in BRCA1 mutant cell line MDA-MB-436. In kind it is cell-based. To be noted: Homo sapiens, MDA-MB-436, viability, BRCA1 mutant MDA-MB-436; read-out: MDA-MB-436 rel IC50. From the text: (§1) Table 1 also indicates IC50 values in a viability assay for a non-isogenic pair of BRCA1 mutant (column 5—MDA-MB-436) and BRCA1 WT (column 6—HCC1954) cell lines. These values indicate the effect of treatment with compound on cell survival.

For assay [2], the system named is HCC1954 (BRCA1 WT) cell line. The experiment in a line: Viability assay in BRCA1 WT cell line HCC1954. In kind it is cell-based. To be noted: Homo sapiens, read-out: HCC 1954 IC50 rel IC50.
Description: as §1

The test system of the next assay is monoubiquitinated PCNA. The experiment in a line: AlphaLISA assay measuring monoubiquitinated PCNA in MDA-MB-436. In kind it is cell-based. To be noted: Homo sapiens, read-out: Alpha LISA IC50. An excerpt: Table 1 also indicates IC50 values for exemplary compounds in an AlphaLISA assay measuring monoubiquitinated PCNA in a BRCA1 mutant cell line (MDA-MB-436; column 7).

Chain of USP1-UAF1 (O94782 whole entry): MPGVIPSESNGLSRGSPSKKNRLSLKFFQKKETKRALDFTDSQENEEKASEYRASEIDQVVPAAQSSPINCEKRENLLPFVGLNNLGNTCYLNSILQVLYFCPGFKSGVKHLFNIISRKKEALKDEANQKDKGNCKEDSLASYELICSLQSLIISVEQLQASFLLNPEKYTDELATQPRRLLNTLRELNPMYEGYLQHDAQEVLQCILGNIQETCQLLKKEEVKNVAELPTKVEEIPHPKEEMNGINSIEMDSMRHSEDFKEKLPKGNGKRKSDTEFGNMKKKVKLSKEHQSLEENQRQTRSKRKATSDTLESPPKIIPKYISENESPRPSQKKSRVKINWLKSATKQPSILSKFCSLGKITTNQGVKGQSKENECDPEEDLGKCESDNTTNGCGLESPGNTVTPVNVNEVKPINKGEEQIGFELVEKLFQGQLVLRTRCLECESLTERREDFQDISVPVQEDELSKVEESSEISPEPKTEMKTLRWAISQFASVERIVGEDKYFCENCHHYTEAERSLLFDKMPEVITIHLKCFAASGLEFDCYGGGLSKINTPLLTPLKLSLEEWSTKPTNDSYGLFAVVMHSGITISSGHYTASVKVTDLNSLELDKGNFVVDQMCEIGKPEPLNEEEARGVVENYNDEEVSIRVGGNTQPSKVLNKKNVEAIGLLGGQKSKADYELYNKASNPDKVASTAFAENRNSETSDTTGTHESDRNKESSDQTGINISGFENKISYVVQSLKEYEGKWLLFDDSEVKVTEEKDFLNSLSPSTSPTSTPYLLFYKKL
Chain of USP1-UAF1 (Q8TAF3 whole entry partner): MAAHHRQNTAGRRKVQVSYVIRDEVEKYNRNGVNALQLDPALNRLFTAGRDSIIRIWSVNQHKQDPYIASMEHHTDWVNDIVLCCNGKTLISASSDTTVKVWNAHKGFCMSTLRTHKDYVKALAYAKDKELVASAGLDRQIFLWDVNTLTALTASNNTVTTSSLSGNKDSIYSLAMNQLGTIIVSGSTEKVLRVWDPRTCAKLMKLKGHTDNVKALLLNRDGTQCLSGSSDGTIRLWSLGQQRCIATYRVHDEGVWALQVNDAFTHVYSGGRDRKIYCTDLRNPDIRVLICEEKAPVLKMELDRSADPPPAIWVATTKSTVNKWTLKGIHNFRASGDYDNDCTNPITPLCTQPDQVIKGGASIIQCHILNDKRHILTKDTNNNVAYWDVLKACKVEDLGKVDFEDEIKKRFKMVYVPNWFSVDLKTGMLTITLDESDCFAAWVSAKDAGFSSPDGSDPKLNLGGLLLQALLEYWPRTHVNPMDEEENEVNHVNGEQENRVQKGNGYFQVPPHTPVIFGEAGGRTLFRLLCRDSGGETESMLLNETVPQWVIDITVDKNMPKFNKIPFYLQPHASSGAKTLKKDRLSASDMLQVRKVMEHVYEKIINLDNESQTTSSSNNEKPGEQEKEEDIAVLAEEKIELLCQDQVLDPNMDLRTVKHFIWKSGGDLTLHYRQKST

On to `COCCc1[nH]c2cnc(-c3c(OC)ncnc3C3CC3)nc2c1Cc1ccc(-c2nc(C(F)(F)F)cn2C)cc1` [Compound 195, 2-(4-cyclopropyl-6-methoxy-pyrimidin-5-yl)-6-(2-methoxyethyl)-7-[[4-[-methyl-4-(trifluoromethyl)imidazol-2-yl]phenyl]methyl]-5H-pyrrolo[3,2-d]pyrimidine], for which the IC50 at USP1-UAF1 was less than 30 nM; in assay [1] it was less than 100 nM; in assay [2] it was not below 10000 nM; in the assay on monoubiquitinated PCNA it was less than 100 nM.
As for `Cn1cc(C(F)(F)F)nc1-c1ccc(Cc2c[nH]c3cnc(-c4cccnc4OC4CC4)nc23)cc1` [Compound 41, 2-cyclopropoxy-3-[7-([4-[1-methyl-4-(trifluoromethyl)imidazol-2-yl]phenyl]methyl)-5H-pyrrolo[3,2-d]pyrimidin-2-yl]pyridine], the concentration for half-maximal inhibition (IC50) is 30 to 100 nM at USP1-UAF1, 100 to 250 nM in assay [1], not below 10000 nM in assay [2] and less than 100 nM in the assay on monoubiquitinated PCNA.
Regarding `COc1ncnc(C2CC2(F)F)c1-c1ncc2[nH]cc(Cc3ccc(-c4nc(C(F)(F)F)cn4C)cc3)c2n1` (stereo not shown) [Compound 147, 2-[4-(2,2-difluorocyclopropyl)-6-methoxy-pyrimidin-5-yl]-7-[[4-[1-methyl-4-(trifluoromethyl)imidazol-2-yl]phenyl]methyl]-5H-pyrrolo[3,2-d]pyrimidine], the IC50 at USP1-UAF1 was less than 30 nM; in assay [1], less than 100 nM; in assay [2] it was not below 10000 nM; with monoubiquitinated PCNA, less than 100 nM.
For the compound `COc1ncnc(OC)c1-c1ncc2[nH]cc(Cc3ccc(-c4nc(C(F)(F)F)cn4C)cc3)c2n1` [Compound 100], the IC50 against USP1-UAF1 is 30 to 100 nM; in assay [1] it was 100 to 250 nM; in assay [2], not below 10000 nM; with monoubiquitinated PCNA it was less than 100 nM.
With `CCn1cc(C(F)(F)F)nc1-c1ccc(Cc2c[nH]c3cnc(-c4c(OC)ncnc4C4CC4)nc23)cc1` [Compound 15], the IC50 on USP1-UAF1 is less than 30 nM; in assay [1] it was less than 100 nM; in assay [2], not below 10000 nM; in the assay with monoubiquitinated PCNA, 100 to 250 nM.
For `Cn1cc(C(F)(F)F)nc1-c1ccc(C(O)c2c[nH]c3cnc(-c4c(OC(F)F)ncnc4C4CC4)nc23)cc1` (single isomer, unassigned) [Compound 103], the IC50 against USP1-UAF1 is 30 to 100 nM; in assay [1] it was less than 100 nM; in assay [2], not below 10000 nM; in the assay on monoubiquitinated PCNA, less than 100 nM.
Consider `COc1ncnc(C2CC2)c1-c1ncc2[nH]cc(C(O)(c3ccc(-c4nc(C(F)(F)F)cn4C)cc3)C(C)C)c2n1` (stereo not shown) [Compound 199], for which the IC50 against USP1-UAF1 is 100 to 10000 nM; in assay [1], 100 to 250 nM; in assay [2], 250 to 10000 nM; in the assay with monoubiquitinated PCNA it was 100 to 250 nM.
Turning to `CC(C)c1ccccc1-c1ncc2c(n1)c(Cc1ccc(-c3nc(C(F)(F)F)cn3C)cc1)cn2CCO` [Compound 57, 2-[2-(2-isopropylphenyl)-7-[[4-[1-methyl-4-(trifluoromethyl)imidazol-2-yl]phenyl]methyl]pyrrolo[3,2-d]pyrimidin-5-yl]ethanol], the IC50 was less than 30 nM on USP1-UAF1, 250 to 10000 nM in assay [1], not below 10000 nM in assay [2] and 100 to 250 nM in the assay on monoubiquitinated PCNA.
For `COc1ncnc(C2CC2)c1-c1ncc2[nH]cc(Cc3ccc(-c4nc(C(F)(F)F)cn4C4CN(C)C4)cc3)c2n1` [Compound 18, 2-(4-cyclopropyl-6-methoxypyrimidin-5-yl)-7-(4-(1-(1-methylazetidin-3-yl)-4-(trifluoromethyl)-1H-imidazol-2-yl)benzyl)-5H-pyrrolo[3,2-d]pyrimidine], the IC50 at USP1-UAF1 is 100 to 10000 nM; in assay [1], 100 to 250 nM; in assay [2], not below 10000 nM; with monoubiquitinated PCNA it was 100 to 250 nM.
Consider `COc1nc(C)nc(C2CC2)c1-c1ncc2[nH]cc(Cc3ccc(-c4nc(C(F)(F)F)cn4C)cc3)c2n1` [Compound 142, 2-(4-cyclopropyl-6-methoxy-2-methylpyrimidin-5-yl)-7-(4-(1-methyl-4-(trifluoromethyl)-1H-imidazol-2-yl)benzyl)-5H-pyrrolo[3,2-d]pyrimidine], for which the IC50 against USP1-UAF1 was 30 to 100 nM; in assay [1] it was less than 100 nM; in assay [2] it was not below 10000 nM; with monoubiquitinated PCNA it was less than 100 nM.
On to `COc1ncnc(C2CC2)c1-c1ncc2[nH]cc(Cc3ccc(-c4nc(C(F)(F)F)cn4C)cc3)c2n1` [Compound 65, 2-(4-cyclopropyl-6-methoxy-pyrimidin-5-yl)-7-[[4-[1-methyl-4-(trifluoromethyl)imidazol-2-yl]phenyl]methyl]-5H-pyrrolo[3,2-d]pyrimidine], for which the IC50 against USP1-UAF1 is less than 30 nM; in assay [1], less than 100 nM; in assay [2] it was not below 10000 nM; in the assay on monoubiquitinated PCNA, less than 100 nM.
As to `C[C@@H](Oc1ncccc1-c1ncc2[nH]cc(Cc3ccc(-c4nc(C(F)(F)F)cn4C)cc3)c2n1)C(F)(F)F` (single isomer, unassigned) [Compound 21], the IC50 against USP1-UAF1 is less than 30 nM; in assay [1], less than 100 nM; in assay [2] it was 250 to 10000 nM; in the assay on monoubiquitinated PCNA, less than 100 nM.
Take `[2H]C([2H])([2H])n1nc(Cc2ccc(-c3nc(C(F)(F)F)cn3C)cc2)c2nc(-c3c(OC)ncnc3C3CC3)ncc21` [Compound 143, 5-(4-cyclopropyl-6-methoxy-pyrimidin-5-yl)-3-[[4-[1-methyl-4-(trifluoromethyl)imidazol-2-yl]phenyl]methyl]-1-(trideuteriomethyl)pyrazolo[4,3-d]pyrimidine]: the IC50 against USP1-UAF1 was less than 30 nM; in assay [1], less than 100 nM; in assay [2], not below 10000 nM; with monoubiquitinated PCNA, less than 100 nM.
Take `COc1ncnc(C2CC2)c1-c1ncc2c(n1)c(Cc1ccc(-c3nc(C(F)(F)F)cn3C)cc1)cn2S(C)(=O)=O` [Compound 146, 2-(4-cyclopropyl-6-methoxy-pyrimidin-5-yl)-5-methylsulfonyl-7-[[4-[1-methyl-4-(trifluoromethyl)imidazol-2-yl]phenyl]methyl]pyrrolo[3,2-d]pyrimidine]: the 50% inhibitory concentration (IC50) is less than 30 nM on USP1-UAF1, less than 100 nM in assay [1], not below 10000 nM in assay [2] and 100 to 250 nM in the assay with monoubiquitinated PCNA.
On the same counts, the results for `CCOc1ncnc(C2CC2)c1-c1ncc2[nH]cc(Cc3ccc(-c4nc(C(F)(F)F)cn4C)cc3)c2n1` [Compound 111, 2-(4-cyclopropyl-6-ethoxy-pyrimidin-5-yl)-7-[[4-[1-methyl-4-(trifluoromethyl)imidazol-2-yl]phenyl]methyl]-5H-pyrrolo[3,2-d]pyrimidine] are 30 to 100 nM, less than 100 nM, not below 10000 nM and less than 100 nM.
The corresponding values for `COCCn1cc(Cc2ccc(-c3nc(C(F)(F)F)cn3C)cc2)c2nc(-c3c(OC)ncnc3C3CC3)ncc21` [Compound 200, 2-(4-cyclopropyl-6-methoxy-pyrimidin-5-yl)-5-(2-methoxyethyl)-7-[[4-[1-methyl-4-(trifluoromethyl)imidazol-2-yl]phenyl]methyl]pyrrolo[3,2-d]pyrimidine] are 30 to 100 nM, less than 100 nM, not below 10000 nM and less than 100 nM.
The corresponding values for `COc1ncnc(OC)c1-c1ncc2[nH]nc(Cc3ccc(-c4nc(C(F)(F)F)cn4C)cc3)c2n1` [Compound 144] are less than 30 nM, 100 to 250 nM, not below 10000 nM and 100 to 250 nM.
With `COc1ncnc(C2CC2)c1-c1ncc2[nH]nc(Cc3ccc(-c4nc(C(F)(F)F)cn4C4CC4)cc3)c2n1` [Compound 206], the IC50 at USP1-UAF1 is less than 30 nM; in assay [1], less than 100 nM; in assay [2] it was 250 to 10000 nM; in the assay with monoubiquitinated PCNA it was less than 100 nM.
Take `COc1ncnc(C2CC2)c1-c1ncc2[nH]nc(Cc3ccc(-c4nc(C(F)(F)F)cn4C)c(F)c3)c2n1` [Compound 90, 5-(4-cyclopropyl-6-methoxypyrimidin-5-yl)-3-(3-fluoro-4-(1-methyl-4-(trifluoromethyl)-1H-imidazol-2-yl)benzyl)-1H-pyrazolo[4,3-d]pyrimidine]: the concentration for half-maximal inhibition (IC50) at USP1-UAF1 is less than 30 nM; in assay [1] it was less than 100 nM; in assay [2], not below 10000 nM; in the assay on monoubiquitinated PCNA, less than 100 nM.
Consider `Cn1cc(C(F)(F)F)nc1-c1ccc([C@@](C)(O)c2c[nH]c3cnc(-c4cccnc4OCC(F)(F)F)nc23)cc1` (single isomer, unassigned) [Compound 74], for which the IC50 on USP1-UAF1 is less than 30 nM; in assay [1], 250 to 10000 nM; in assay [2] it was 250 to 10000 nM; in the assay with monoubiquitinated PCNA it was 100 to 250 nM.
For the compound `CC(C)c1ccccc1-c1ncc2[nH]cc([C@@H](C)c3ccc(-c4nc(C(F)(F)F)cn4C)cc3)c2n1` (single isomer, unassigned) [Compound 82], the half-maximal inhibitory concentration (IC50) is less than 30 nM on USP1-UAF1, less than 100 nM in assay [1], 250 to 10000 nM in assay [2] and less than 100 nM in the assay on monoubiquitinated PCNA.
On to `COc1ncnc(C2CC2)c1-c1ncc2[nH]cc(Cc3ccc(-c4nc(C(F)(F)F)cn4C)cc3F)c2n1` [Compound 120, 2-(4-cyclopropyl-6-methoxy-pyrimidin-5-yl)-7-[[2-fluoro-4-[1-methyl-4-(trifluoromethyl)imidazol-2-yl]phenyl]methyl]-5H-pyrrolo[3,2-d]pyrimidine], for which the IC50 is less than 30 nM against USP1-UAF1, less than 100 nM in assay [1], not below 10000 nM in assay [2] and less than 100 nM in the assay on monoubiquitinated PCNA.

Usually IC50 stands for the concentration needed to halve the response being measured.
